Columns and labels:
[1] = Inhibition of Tel-fused LYN expressed in mouse BAF3 cells
[2] = Inhibition of Tel-fused LCK expressed in mouse BAF3 cells
[3] = Inhibition of Tel-fused SRC expressed in mouse BAF3 cells
[4] = Inhibition of Tel-fused KDR expressed in mouse BAF3 cells

SMILES	IC50 [1] [nM]	IC50 [2] [nM]	IC50 [3] [nM]	IC50 [4] [nM]
Cc1ccc(C(=O)Nc2cccc(OC(F)F)c2)cc1Nc1nc2ccccc2n1-c1cc(N)ncn1 [3-(1-(6-aminopyrimidin-4-yl)-1H-benzo[d]imidazol-2-ylamino)-N-(3-(difluoromethoxy)phenyl)-4-methylbenzamide]	100	47	> 10000	92
Cc1ccc(C(=O)Nc2cccc(C(F)(F)F)c2)cc1Nc1nc2ccccc2n1-c1cc(NCCN2CCN(C)CC2)ncn1 [4-methyl-3-(1-(6-(2-(4-methylpiperazin-1-yl)ethylamino)pyrimidin-4-yl)-1H-benzo[d]imidazol-2-ylamino)-N-(3-(trifluoromethyl)phenyl)benzamide]	113	45	527	185
Cc1ccc(C(=O)Nc2cccc(C(F)(F)F)c2)cc1Nc1nc2ccccc2n1-c1ncnc(N)c1C [3-(1-(6-amino-5-methylpyrimidin-4-yl)-1H-benzo[d]imidazol-2-ylamino)-4-methyl-N-(3-(trifluoromethyl)phenyl)benzamide]	8010	4460	> 10000	8180
Cc1ccc(C(=O)Nc2cccc(C(C)C)c2)cc1Nc1nc2ccccc2n1-c1cc(N)ncn1 [3-(1-(6-aminopyrimidin-4-yl)-1H-benzo[d]imidazol-2-ylamino)-N-(3-isopropylphenyl)-4-methylbenzamide]	15	7	21	17
Cc1ccc(C(=O)Nc2ccccc2)cc1Nc1nc2ccccc2n1-c1cc(N)ncn1 [3-(1-(6-aminopyrimidin-4-yl)-1H-benzo[d]imidazol-2-ylamino)-4-methyl-N-phenylbenzamide]	5510	2280	6170	8820
Cc1cccc(NC(=O)c2ccc(C)c(Nc3nc4ccccc4n3-c3cc(NCCCN4CCN(C)CC4)ncn3)c2)c1 [4-methyl-3-(1-(6-(3-(4-methylpiperazin-1-yl)propylamino)pyrimidin-4-yl)-1H-benzo[d]imidazol-2-ylamino)-N-m-tolylbenzamide]	1230	337	1410	1110
Cc1ccc(NC(=O)c2cc(CN3CCN(C)CC3)n(C(C)(C)C)n2)cc1Nc1nc2ccccc2n1-c1cc(N)ncn1 [N-(3-(1-(6-aminopyrimidin-4-yl)-1H-benzo[d]imidazol-2-ylamino)-4-methylphenyl)-1-tert-butyl-5-((4-methylpiperazin-1-yl)methyl)-1H-pyrazole-3-carboxamide]	88	18	249	63
CCN(CC)CCNc1cc(-n2c(Nc3cc(NC(=O)c4cccc(C(F)(F)F)c4)ccc3C)nc3ccccc32)ncn1 [N-(3-(1-(6-(2-(diethylamino)ethylamino)pyrimidin-4-yl)-1H-benzo[d]imidazol-2-ylamino)-4-methylphenyl)-3-(trifluoromethyl)benzamide]	642	418	398	1730
Cc1ccc(C(=O)Nc2cccc(C(F)(F)F)c2)cc1Nc1nc2ccccc2n1-c1cc(NCCC#N)ncn1 [3-(1-(6-(2-cyanoethylamino)pyrimidin-4-yl)-1H-benzo[d]imidazol-2-ylamino)-4-methyl-N-(3-(trifluoromethyl)phenyl)benzamide]	468	275	1220	245
Cc1ccc(NC(=O)c2cccc(C(F)(F)F)c2)cc1Nc1nc2ccccc2n1-c1cc(NCCCCN)ncn1 [N-(3-(1-(6-(4-aminobutylamino)pyrimidin-4-yl)-1H-benzo[d]imidazol-2-ylamino)-4-methylphenyl)-3-(trifluoromethyl)benzamide]	457	366	1660	599
Cc1ccc(C(=O)Nc2cccc(Cl)c2)cc1Nc1nc2ccccc2n1-c1cc(N)ncn1 [3-(1-(6-aminopyrimidin-4-yl)-1H-benzo[d]imidazol-2-ylamino)-N-(3-chlorophenyl)-4-methylbenzamide]	> 10000	76	> 10000	260
Cc1ccc(NC(=O)c2cc(C3CC3)n[nH]2)cc1Nc1nc2ccccc2n1-c1cc(N)ncn1 [N-(3-(1-(6-aminopyrimidin-4-yl)-1H-benzo[d]imidazol-2-ylamino)-4-methylphenyl)-3-cyclopropyl-1H-pyrazole-5-carboxamide]	96	50	56	48
Cc1ccc(NC(=O)c2cccc(C(F)(F)F)c2)cc1Nc1nc2ccccc2n1-c1cc(NCCCN)ncn1 [N-(3-(1-(6-(3-aminopropylamino)pyrimidin-4-yl)-1H-benzo[d]imidazol-2-ylamino)-4-methylphenyl)-3-(trifluoromethyl)benzamide]	1120	387	1320	1470

Results, then the molecule that gave them:

IC50 [1] [nM]	IC50 [2] [nM]	IC50 [3] [nM]	IC50 [4] [nM]	SMILES
14	7	78	36	Cc1ccc(NC(=O)c2cccc(C(F)(F)F)c2)cc1Nc1nc2ccccc2n1-c1cc(N)ncn1 [N-(3-(1-(6-aminopyrimidin-4-yl)-1H-benzo[d]imidazol-2-ylamino)-4-methylphenyl)-3-(trifluoromethyl)benzamide]
82	32	490	280	Cc1cccc(C(=O)Nc2ccc(C)c(Nc3nc4ccccc4n3-c3cc(N)ncn3)c2)c1 [N-(3-(1-(6-aminopyrimidin-4-yl)-1H-benzo[d]imidazol-2-ylamino)-4-methylphenyl)-3-methylbenzamide]
259	171	524	549	Cc1ccc(NC(=O)c2cccc(C(F)(F)F)c2)cc1Nc1nc2ccccc2n1-c1cc(NCCc2ccccn2)ncn1 [N-(4-methyl-3-(1-(6-(2-(pyridin-2-yl)ethylamino)pyrimidin-4-yl)-1H-benzo[d]imidazol-2-ylamino)phenyl)-3-(trifluoromethyl)benzamide]
9	4	57	5	CCN1CCN(c2cc(C(=O)Nc3ccc(C)c(Nc4nc5ccccc5n4-c4cc(N)ncn4)c3)cc(C(F)(F)F)c2)CC1 [N-(3-(1-(6-aminopyrimidin-4-yl)-1H-benzo[d]imidazol-2-ylamino)-4-methylphenyl)-3-(4-ethylpiperazin-1-yl)-5-(trifluoromethyl)benzamide]
3610	1070	9690	6360	Cc1ccc(NC(=O)c2cc(Cl)cc(Cl)c2)cc1Nc1nc2ccccc2n1-c1cc(N)ncn1 [N-(3-(1-(6-aminopyrimidin-4-yl)-1H-benzo[d]imidazol-2-ylamino)-4-methylphenyl)-3,5-dichlorobenzamide]
> 10000	> 10000	> 10000	> 10000	Cc1ccc(NC(=O)c2cccc(C(F)(F)F)c2)cc1Nc1nc2ccccc2n1-c1cc(N2CCOCC2)ncn1 [N-(4-methyl-3-(1-(6-morpholinopyrimidin-4-yl)-1H-benzo[d]imidazol-2-ylamino)phenyl)-3-(trifluoromethyl)benzamide]
